How the values were obtained:
[1] = target: Ribosomal protein S6 kinase alpha-4 (Homo sapiens) (UniProt O75676); assay: Inhibition of human MSK2/RPS6KA4 using GRPRTSSFAEG as substrate at 1 uM in presence of 32P-ATP by Hotspot assay relative to control; values are per cent of control
[2] = target: Proto-oncogene tyrosine-protein kinase Src (Homo sapiens) (UniProt P12931); assay: Inhibition of human c-Src using poly[Glu:Tyr] (4:1) as substrate at 1 uM in presence of 32P-ATP by Hotspot assay relative to control; values are per cent of control
Proto-oncogene tyrosine-protein kinase Src (Homo sapiens), sequence (P12931 2-536 limits assumed): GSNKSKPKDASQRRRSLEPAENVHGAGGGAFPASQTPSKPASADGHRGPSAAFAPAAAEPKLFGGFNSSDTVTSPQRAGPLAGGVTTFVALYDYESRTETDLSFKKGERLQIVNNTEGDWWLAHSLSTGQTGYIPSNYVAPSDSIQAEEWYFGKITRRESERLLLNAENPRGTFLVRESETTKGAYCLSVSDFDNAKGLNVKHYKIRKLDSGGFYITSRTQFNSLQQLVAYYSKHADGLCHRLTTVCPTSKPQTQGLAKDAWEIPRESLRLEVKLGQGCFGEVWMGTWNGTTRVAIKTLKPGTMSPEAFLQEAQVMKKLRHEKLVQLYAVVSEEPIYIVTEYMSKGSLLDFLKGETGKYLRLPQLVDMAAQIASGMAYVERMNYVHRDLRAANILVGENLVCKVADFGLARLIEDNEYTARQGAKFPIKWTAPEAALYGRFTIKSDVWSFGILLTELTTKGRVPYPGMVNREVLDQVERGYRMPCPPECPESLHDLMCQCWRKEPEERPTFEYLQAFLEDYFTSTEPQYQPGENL

[3] = target: Maternal embryonic leucine zipper kinase (Homo sapiens) (UniProt Q14680); assay: Inhibition of human MELK using KKLNRTLSFAEPG as substrate at 1 uM in presence of 32P-ATP by Hotspot assay relative to control; values are per cent of control
Maternal embryonic leucine zipper kinase (Homo sapiens), sequence (Q14680 whole entry, looked up): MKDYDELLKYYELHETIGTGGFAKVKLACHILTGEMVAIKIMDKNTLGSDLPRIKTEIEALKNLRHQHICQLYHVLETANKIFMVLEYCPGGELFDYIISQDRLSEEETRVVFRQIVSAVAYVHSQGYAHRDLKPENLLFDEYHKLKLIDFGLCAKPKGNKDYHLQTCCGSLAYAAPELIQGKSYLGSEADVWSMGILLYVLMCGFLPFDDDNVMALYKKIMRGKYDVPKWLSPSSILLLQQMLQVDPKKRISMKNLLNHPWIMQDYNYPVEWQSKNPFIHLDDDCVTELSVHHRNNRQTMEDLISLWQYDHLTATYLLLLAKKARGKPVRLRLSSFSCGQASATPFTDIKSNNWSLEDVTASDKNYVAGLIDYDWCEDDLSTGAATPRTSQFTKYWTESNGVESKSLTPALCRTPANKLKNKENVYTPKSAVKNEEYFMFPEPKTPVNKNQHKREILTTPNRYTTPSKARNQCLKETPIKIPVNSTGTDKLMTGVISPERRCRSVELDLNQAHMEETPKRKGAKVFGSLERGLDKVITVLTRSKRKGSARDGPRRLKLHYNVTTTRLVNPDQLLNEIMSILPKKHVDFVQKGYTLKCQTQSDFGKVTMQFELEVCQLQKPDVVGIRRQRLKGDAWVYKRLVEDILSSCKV

[4] = target: Calcium/calmodulin-dependent protein kinase type II subunit gamma (Homo sapiens) (UniProt Q13555); assay: Inhibition of human CAMK2g using KKLNRTLSFAEPG as substrate at 1 uM in presence of 32P-ATP by Hotspot assay relative to control; values are per cent of control
Calcium/calmodulin-dependent protein kinase type II subunit gamma (Homo sapiens), sequence (Q13555 whole entry): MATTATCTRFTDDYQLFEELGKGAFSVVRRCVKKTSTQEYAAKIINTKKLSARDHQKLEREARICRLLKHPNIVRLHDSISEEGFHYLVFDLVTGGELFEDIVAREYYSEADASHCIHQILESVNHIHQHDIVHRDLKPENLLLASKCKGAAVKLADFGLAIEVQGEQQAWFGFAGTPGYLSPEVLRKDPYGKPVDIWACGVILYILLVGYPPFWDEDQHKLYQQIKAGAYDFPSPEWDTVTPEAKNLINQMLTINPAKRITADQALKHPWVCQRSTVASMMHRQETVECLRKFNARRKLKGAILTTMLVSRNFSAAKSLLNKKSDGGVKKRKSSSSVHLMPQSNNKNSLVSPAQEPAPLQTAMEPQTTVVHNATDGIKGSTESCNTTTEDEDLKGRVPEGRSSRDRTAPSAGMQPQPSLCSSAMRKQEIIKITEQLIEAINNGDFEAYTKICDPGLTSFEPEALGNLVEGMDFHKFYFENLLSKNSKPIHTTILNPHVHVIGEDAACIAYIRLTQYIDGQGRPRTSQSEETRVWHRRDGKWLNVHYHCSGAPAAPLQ

[5] = target: Tyrosine-protein kinase Lyn (Homo sapiens) (UniProt P07948); assay: Inhibition of human LYN using poly[Glu:Tyr] (4:1) as substrate at 1 uM in presence of 32P-ATP by Hotspot assay relative to control; values are per cent of control
Tyrosine-protein kinase Lyn (Homo sapiens), sequence (P07948 2-512 limits assumed): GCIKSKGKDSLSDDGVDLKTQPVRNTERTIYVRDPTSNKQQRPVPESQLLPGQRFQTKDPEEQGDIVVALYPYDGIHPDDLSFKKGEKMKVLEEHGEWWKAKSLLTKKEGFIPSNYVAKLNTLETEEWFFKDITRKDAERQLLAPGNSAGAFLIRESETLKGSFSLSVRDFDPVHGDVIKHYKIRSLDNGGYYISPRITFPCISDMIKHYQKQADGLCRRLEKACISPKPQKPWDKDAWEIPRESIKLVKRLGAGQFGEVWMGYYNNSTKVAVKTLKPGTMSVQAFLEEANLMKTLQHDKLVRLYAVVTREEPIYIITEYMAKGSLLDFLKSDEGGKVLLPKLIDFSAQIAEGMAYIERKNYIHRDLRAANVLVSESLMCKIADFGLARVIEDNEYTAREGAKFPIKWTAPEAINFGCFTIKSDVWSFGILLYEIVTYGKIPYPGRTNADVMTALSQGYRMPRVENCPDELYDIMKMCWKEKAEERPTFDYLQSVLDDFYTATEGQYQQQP

[6] = target: T1, MAP/microtubule affinity-regulating kinase 4 (Homo sapiens) (UniProt Q96L34); assay: Inhibition of human MARK4 using KKKVSRSGLYRSPSMPENLNRPR as substrate at 1 uM in presence of 32P-ATP by Hotspot assay relative to control; values are per cent of control
T1 sequence (whole entry): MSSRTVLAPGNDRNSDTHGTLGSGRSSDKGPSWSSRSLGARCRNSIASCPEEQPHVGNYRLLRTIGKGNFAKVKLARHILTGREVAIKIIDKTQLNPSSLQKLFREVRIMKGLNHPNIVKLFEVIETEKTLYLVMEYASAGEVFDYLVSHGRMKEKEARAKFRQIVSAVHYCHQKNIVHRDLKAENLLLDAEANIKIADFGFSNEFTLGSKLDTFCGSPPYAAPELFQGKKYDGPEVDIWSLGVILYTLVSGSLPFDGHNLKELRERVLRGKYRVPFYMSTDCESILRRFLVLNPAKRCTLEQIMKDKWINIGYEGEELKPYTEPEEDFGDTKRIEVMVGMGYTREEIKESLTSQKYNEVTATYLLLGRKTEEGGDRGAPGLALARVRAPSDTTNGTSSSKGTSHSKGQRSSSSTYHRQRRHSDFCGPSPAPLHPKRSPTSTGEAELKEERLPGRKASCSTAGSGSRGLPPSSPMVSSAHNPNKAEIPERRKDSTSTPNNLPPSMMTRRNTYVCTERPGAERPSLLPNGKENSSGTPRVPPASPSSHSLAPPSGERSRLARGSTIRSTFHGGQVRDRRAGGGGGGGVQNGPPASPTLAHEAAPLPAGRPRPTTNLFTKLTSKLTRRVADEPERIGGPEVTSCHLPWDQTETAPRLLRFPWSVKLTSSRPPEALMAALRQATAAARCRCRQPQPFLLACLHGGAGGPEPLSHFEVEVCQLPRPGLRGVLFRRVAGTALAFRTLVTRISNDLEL

[7] = target: T2, Discoidin domain-containing receptor 2 (Homo sapiens) (UniProt Q16832); assay: Inhibition of human DDR2 using KKSRGDYMTMQIG as substrate at 1 uM in presence of 32P-ATP by Hotspot assay relative to control; values are per cent of control
T2 sequence (whole entry): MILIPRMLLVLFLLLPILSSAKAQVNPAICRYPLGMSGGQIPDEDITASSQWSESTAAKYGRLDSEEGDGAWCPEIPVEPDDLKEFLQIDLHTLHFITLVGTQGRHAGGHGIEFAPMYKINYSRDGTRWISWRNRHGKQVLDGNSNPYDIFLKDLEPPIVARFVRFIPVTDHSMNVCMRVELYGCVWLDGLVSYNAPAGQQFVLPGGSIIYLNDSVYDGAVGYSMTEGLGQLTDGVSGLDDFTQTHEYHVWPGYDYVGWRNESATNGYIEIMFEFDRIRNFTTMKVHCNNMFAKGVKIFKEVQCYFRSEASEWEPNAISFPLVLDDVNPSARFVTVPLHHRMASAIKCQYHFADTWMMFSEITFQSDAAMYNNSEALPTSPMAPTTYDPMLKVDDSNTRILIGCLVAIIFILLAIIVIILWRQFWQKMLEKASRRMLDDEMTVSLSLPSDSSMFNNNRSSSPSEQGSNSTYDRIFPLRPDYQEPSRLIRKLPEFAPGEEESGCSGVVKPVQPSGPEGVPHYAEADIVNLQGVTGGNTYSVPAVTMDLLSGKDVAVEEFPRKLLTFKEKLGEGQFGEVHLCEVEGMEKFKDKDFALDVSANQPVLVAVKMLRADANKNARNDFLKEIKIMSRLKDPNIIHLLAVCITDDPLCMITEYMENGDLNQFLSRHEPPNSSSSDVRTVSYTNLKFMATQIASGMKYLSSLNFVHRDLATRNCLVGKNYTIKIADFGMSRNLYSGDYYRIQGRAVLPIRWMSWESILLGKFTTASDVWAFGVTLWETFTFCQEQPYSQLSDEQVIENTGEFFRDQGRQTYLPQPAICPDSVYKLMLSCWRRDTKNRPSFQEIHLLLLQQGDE

[8] = target: Serine/threonine-protein kinase pim-3 (Homo sapiens) (UniProt Q86V86); assay: Inhibition of human PIM3 using RSRHSSYPAGT as substrate at 1 uM in presence of 32P-ATP by Hotspot assay relative to control; values are per cent of control
[9] = target: Dual specificity protein kinase CLK4 (Homo sapiens) (UniProt Q9HAZ1); assay: Inhibition of human CLK4 using myelin basic protein as substrate at 1 uM in presence of 32P-ATP by Hotspot assay relative to control; values are per cent of control
Dual specificity protein kinase CLK4 (Homo sapiens), sequence (Q9HAZ1 whole entry, looked up): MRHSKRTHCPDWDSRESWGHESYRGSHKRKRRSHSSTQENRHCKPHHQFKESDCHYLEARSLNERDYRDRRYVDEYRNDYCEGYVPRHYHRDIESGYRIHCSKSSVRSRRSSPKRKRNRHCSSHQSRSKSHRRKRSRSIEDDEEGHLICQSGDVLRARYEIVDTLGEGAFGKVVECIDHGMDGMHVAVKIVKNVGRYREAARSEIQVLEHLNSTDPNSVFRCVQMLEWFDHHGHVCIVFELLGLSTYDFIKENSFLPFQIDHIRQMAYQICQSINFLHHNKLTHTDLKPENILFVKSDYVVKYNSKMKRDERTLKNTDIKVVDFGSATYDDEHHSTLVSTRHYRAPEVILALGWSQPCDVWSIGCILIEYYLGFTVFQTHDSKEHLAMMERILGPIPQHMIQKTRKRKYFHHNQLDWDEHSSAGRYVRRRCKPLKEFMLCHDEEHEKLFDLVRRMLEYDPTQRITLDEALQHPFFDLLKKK

[10] = target: Calcium/calmodulin-dependent protein kinase kinase 1 (Homo sapiens) (UniProt Q8N5S9); assay: Inhibition of human CAMKK1 using myelin basic protein as substrate at 1 uM in presence of 32P-ATP by Hotspot assay relative to control; values are per cent of control
Calcium/calmodulin-dependent protein kinase kinase 1 (Homo sapiens), sequence (Q8N5S9 whole entry, looked up): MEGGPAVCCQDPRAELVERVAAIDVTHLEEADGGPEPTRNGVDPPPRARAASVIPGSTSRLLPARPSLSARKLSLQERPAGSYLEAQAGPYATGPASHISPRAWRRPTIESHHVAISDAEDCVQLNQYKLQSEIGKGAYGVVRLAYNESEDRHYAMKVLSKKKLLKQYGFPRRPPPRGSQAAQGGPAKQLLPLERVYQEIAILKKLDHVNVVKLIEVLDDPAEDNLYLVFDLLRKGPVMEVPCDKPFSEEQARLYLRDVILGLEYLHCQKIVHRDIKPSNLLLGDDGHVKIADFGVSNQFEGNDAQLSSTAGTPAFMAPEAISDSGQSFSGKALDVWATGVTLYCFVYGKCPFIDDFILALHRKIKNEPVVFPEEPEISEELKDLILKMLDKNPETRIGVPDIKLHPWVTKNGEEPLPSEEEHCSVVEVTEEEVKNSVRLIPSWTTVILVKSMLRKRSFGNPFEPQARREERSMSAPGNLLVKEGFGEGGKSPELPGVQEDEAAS

Ribosomal protein S6 kinase alpha-4 (Homo sapiens), sequence (O75676 whole entry, looked up): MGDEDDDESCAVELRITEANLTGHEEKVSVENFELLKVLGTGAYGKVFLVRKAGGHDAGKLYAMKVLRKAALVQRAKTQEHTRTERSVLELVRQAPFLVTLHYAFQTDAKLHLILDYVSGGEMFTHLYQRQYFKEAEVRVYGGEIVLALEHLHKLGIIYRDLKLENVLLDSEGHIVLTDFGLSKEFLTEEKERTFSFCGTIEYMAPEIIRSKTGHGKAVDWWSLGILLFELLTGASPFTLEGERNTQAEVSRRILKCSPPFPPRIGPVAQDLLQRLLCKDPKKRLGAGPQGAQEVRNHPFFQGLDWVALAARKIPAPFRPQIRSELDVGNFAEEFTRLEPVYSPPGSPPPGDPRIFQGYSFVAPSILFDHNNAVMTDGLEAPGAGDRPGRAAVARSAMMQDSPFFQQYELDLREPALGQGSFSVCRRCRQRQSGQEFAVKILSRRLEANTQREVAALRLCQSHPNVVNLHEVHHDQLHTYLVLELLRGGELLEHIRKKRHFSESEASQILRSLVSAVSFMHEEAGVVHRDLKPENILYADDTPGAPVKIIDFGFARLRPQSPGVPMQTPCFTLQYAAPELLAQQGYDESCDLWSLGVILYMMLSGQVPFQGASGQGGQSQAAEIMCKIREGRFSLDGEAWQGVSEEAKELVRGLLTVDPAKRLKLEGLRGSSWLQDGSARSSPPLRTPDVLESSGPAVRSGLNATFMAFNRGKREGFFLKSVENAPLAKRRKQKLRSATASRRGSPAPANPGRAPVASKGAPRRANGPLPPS

SMILES	residual activity [1] [%]	residual activity [2] [%]	residual activity [3] [%]	residual activity [4] [%]	residual activity [5] [%]	residual activity [6] [%]	residual activity [7] [%]	residual activity [8] [%]	residual activity [9] [%]	residual activity [10] [%]
CC(C)S(=O)(=O)c1ccc2nccc(Nc3ccc4scnc4c3)c2c1	95.4	28.3	96.5	98.3	20	99.9	102	94.2	92.2	99.3
Cc1cc(-c2cnc(N)c3c(-c4ccc5scnc5c4)csc23)n(C)n1	99.3	37.1	88.2	82.4	17	86	88.8	99.5	84.6	98.6
CNC(=O)c1ccc2c(c1)ncn2-c1ccc(CC(=O)OC(C)(C)C)cc1	96.9	80	105	98.5	73.5	93.1	98.7	99.9	93.8	77.3

— ChEMBL document CHEMBL5649166, “RIP3 induces apoptosis independent of pronecrotic kinase activity” (Mol Cell, 2014)
